Converted amounts (≈) assume the structure as drawn.
Legend:
[1] = test system: E. coli HH 33779; test: in vitro minimum inhibitory concentration (MIC); type: cell-based; details: Escherichia coli, HH33779; E. coli HH 33779, in vitro
Experimental: (§1) The compounds of Formula I have exceptional antibacterial activity against both Gram-positive and Gram-negative organisms. Minimum inhibitory concentrations (MIC's) range from 0.2 to <200 μg./ml. in in vitro testing. Test results for the compound 7-D-mandelamido-3-(5-sulfomethyl-1,3,4-oxadiazol-2-ylthiomethyl)-3-cephem- 4-carboxylic acid are given below: […]

[2] = test system: E. coli SK 12140; test: in vitro minimum inhibitory concentration (MIC); type: cell-based; details: Escherichia coli, SK12140; E. coli SK 12140, in vitro
Experimental: as §1

[3] = test system: Entero aerog. ATCC 13048; test: in vitro minimum inhibitory concentration (MIC); type: cell-based; details: Entero aerog. ATCC 13048, in vitro
Experimental: as §1

[4] = test system: Entero. cloacae HH 31254; test: in vitro minimum inhibitory concentration (MIC); type: cell-based; details: Enterobacter cloacae, HH31254; Entero. cloacae HH 31254, in vitro
Experimental: as §1

[5] = test system: Kleb. pneumo. SK 1200; test: in vitro minimum inhibitory concentration (MIC); type: cell-based; details: Kleb. pneumo. SK 1200, in vitro
Experimental: as §1

[6] = test system: Kleb. pneumo. SK 4200; test: in vitro minimum inhibitory concentration (MIC); type: cell-based; details: Kleb. pneumo. SK 4200, in vitro
Experimental: as §1

[7] = test system: Proteus morgani 179; test: in vitro minimum inhibitory concentration (MIC); type: cell-based; details: Proteus morgani 179, in vitro
Experimental: as §1

[8] = test system: Pseudo. aerug. HH 63; test: in vitro minimum inhibitory concentration (MIC); type: cell-based; details: Pseudo. aerug. HH 63, in vitro
Experimental: as §1

[9] = test system: S. aureus HH 127; test: in vitro minimum inhibitory concentration (MIC); type: cell-based; details: Staphylococcus aureus, HH127; S. aureus HH 127, in vitro
Experimental: as §1

[10] = test system: S. aureus SK 23390; test: in vitro minimum inhibitory concentration (MIC); type: cell-based; details: Staphylococcus aureus, SK23390; S. aureus SK 23390, in vitro
Experimental: as §1

[11] = test system: S. villaluz SK 70390; test: in vitro minimum inhibitory concentration (MIC); type: cell-based; details: S. villaluz SK 70390, in vitro
Experimental: as §1

[12] = test system: Salmonella ATCC 12176; test: in vitro minimum inhibitory concentration (MIC); type: cell-based; details: ATCC12176; Salmonella ATCC 12176, in vitro
Experimental: as §1

[13] = test system: Serrata marc. ATCC 13880; test: in vitro minimum inhibitory concentration (MIC); type: cell-based; details: Serrata marc. ATCC 13880, in vitro
Experimental: as §1

[14] = test system: Shigella HH 117; test: in vitro minimum inhibitory concentration (MIC); type: cell-based; details: HH117; Shigella HH 117, in vitro
Experimental: as §1

[15] = test system: Strep. faecalis HH 34358; test: in vitro minimum inhibitory concentration (MIC); type: cell-based; details: Enterococcus faecalis, HH34358; Strep. faecalis HH 34358, in vitro
Experimental: as §1

[16] = test system: E. coli 12140; test: in vivo mouse protection test; details: Escherichia coli, sc, E. coli 12140, subcutaneous injection
Source text: (§2) 4200 upon subcutaneous injection.

[17] = test system: Kleb. pneumo. 4200; test: in vivo mouse protection test; details: sc, Kleb. pneumo. 4200, subcutaneous injection
Source text: as §2

Q: Which results are given for O=C(O)C1=C(CSc2nnc(CS(=O)(=O)O)o2)CS[C@@H]2[C@H](NC(=O)[C@H](O)c3ccccc3)C(=O)N12 [7-D-Mandelamido-3-(5-sulfomethyl-1,3,4-oxadiazol-2-ylthiomethyl)-3-cephem-4-carboxylic acid]?
A: MIC [1]: 3.1 µg/mL (≈ 5.71 µM); MIC [2]: 1.6 µg/mL (≈ 2.95 µM); MIC [3]: 3.1 µg/mL (≈ 5.71 µM); MIC [4]: 1.6 µg/mL (≈ 2.95 µM); MIC [5]: 0.8 µg/mL (≈ 1.47 µM); MIC [6]: 1.6 µg/mL (≈ 2.95 µM); MIC [7]: 25 µg/mL (≈ 46.1 µM); MIC [8]: > 200 µg/mL; MIC [9]: 3.1 µg/mL (≈ 5.71 µM); MIC [10]: 1.6 µg/mL (≈ 2.95 µM); MIC [11]: 200 µg/mL (≈ 369 µM); MIC [12]: 1.6 µg/mL (≈ 2.95 µM); MIC [13]: 100 µg/mL (≈ 184 µM); MIC [14]: 0.8 µg/mL (≈ 1.47 µM); MIC [15]: 50 µg/mL (≈ 92.2 µM); ED50 [16]: 1.56 mg/kg; ED50 [17]: 1.56 mg/kg

— US4130644A, “7-Acylamine-3-(sulfoalkyl substituted oxadiazolylthiomethyl) cephalosporins and pharmaceutical compositions containing them” (SmithKline Corporation, priority 1977, dated 1978)
